Data reported in PubChem BioAssay (NCI).
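Exposure lasted 48 hours, with cells grown in 96-well plates and compounds tested at five concentrations. Here, GI50 denotes the concentration required for 50% inhibition of growth. The concentration for full growth arrest is given as TGI.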

Columns and labels:
Experiment in all cases: NCI tumour cell line growth inhibition, 48 h
A549 NSCLC = test system: A549 NSCLC
DMS 114 small cell lung = test system: DMS 114 small cell lung
KM12 colon = test system: KM12 colon
SF-295 CNS = test system: SF-295 CNS
SN12C renal = test system: SN12C renal
SNB-19 CNS = test system: SNB-19 CNS
SNB-75 CNS = test system: SNB-75 CNS
SNB-78 CNS = test system: SNB-78 CNS
UO-31 renal = test system: UO-31 renal
BT-549 breast = test system: BT-549 breast

| Compound | TGI (A549 NSCLC) | TGI (DMS 114 small cell lung) | TGI (KM12 colon) | TGI (SF-295 CNS) | TGI (SN12C renal) | TGI (SNB-19 CNS) | TGI (SNB-75 CNS) | TGI (SNB-78 CNS) | TGI (UO-31 renal) | TGI (BT-549 breast) | GI50 (A549 NSCLC) | GI50 (BT-549 breast) | GI50 (KM12 colon) | GI50 (SF-295 CNS) | GI50 (SN12C renal) | GI50 (SNB-19 CNS) | GI50 (SNB-75 CNS) | GI50 (UO-31 renal) | GI50 (SNB-78 CNS) |
| --- | --- | --- | --- | --- | --- | --- | --- | --- | --- | --- | --- | --- | --- | --- | --- | --- | --- | --- | --- |
| O=C(OCCOCCOC(=O)c1c[nH]cc1-c1ccccc1)c1c[nH]cc1-c1ccccc1 | 66.4 µM | 32.5 µM | 44.7 µM | 35.7 µM | 42.1 µM | 69.9 µM | 36.7 µM | 68.7 µM | 31.4 µM | – | – | – | – | – | – | – | – | – | – |
| Cc1ccc(S(=O)(=O)N2CCCCC2CCO)cc1 (stereo not given) | > 100 µM | > 100 µM | > 100 µM | > 100 µM | > 100 µM | > 100 µM | > 100 µM | > 100 µM | > 100 µM | – | – | – | – | – | – | – | – | – | – |
| COC(=O)C1Cc2c([nH]c3ccccc23)C=N1 (stereo not given) | > 100 µM | > 100 µM | > 100 µM | > 100 µM | > 100 µM | > 100 µM | > 100 µM | > 100 µM | > 100 µM | – | – | – | – | – | – | – | – | – | – |
| Cc1cc2c(=O)cc(-c3ccc(Cl)cc3)oc2c(C(=O)O)c1C | > 100 µM | > 100 µM | > 100 µM | > 100 µM | > 100 µM | > 100 µM | > 100 µM | > 100 µM | > 100 µM | – | – | – | – | – | – | – | – | – | – |
| CCOC(=O)[C@H]1Nc2ccc(O)cc2C2c3ccccc3CC21 (stereo not given in full) | > 100 µM | > 100 µM | > 100 µM | – | > 100 µM | > 100 µM | > 100 µM | > 100 µM | > 100 µM | – | – | – | – | – | – | – | – | – | – |
| CCCCOC(=O)N[C@H]1CCc2cc(OC)c(OC)c(OC)c2-c2ccc(SC)c(=O)cc21 | 98.9 µM | < 0.01 µM | < 0.0464 µM | < 0.0361 µM | 34.2 µM | 73 µM | 2.99 µM | > 4.64 µM | 49.5 µM | – | – | – | – | – | – | – | – | – | – |
| Cc1ccccc1NC(=O)c1[nH]c(=S)nc(N)c1-c1ccccc1C | > 100 µM | > 100 µM | > 100 µM | > 100 µM | > 100 µM | > 100 µM | 76.1 µM | > 100 µM | > 100 µM | – | – | – | – | – | – | – | – | – | – |
| Cc1c(Cl)cccc1NC(=O)C(=O)C1C(=O)NC(=O)NC1=O | > 100 µM | – | > 100 µM | > 100 µM | > 100 µM | > 100 µM | > 100 µM | > 100 µM | > 100 µM | – | – | – | – | – | – | – | – | – | – |
| CC(C)(C)NNc1c([N+](=O)[O-])cnn(-c2ccccc2)c1=O | 32.4 µM | – | 24.5 µM | 20.1 µM | 6.35 µM | 22.7 µM | 23.8 µM | 58.7 µM | 12.8 µM | 2.7 µM | – | – | – | – | – | – | – | – | – |
| O=C1c2cccnc2-c2nc(-c3ccc([N+](=O)[O-])cc3)cc3c2c1nc1ccccc13 | 8.3 µM | – | 19.4 µM | 15.4 µM | 25.7 µM | 18.3 µM | 12.1 µM | – | > 66.1 µM | 28.6 µM | 2.58 µM | 10.4 µM | 3.35 µM | 4.47 µM | 11.3 µM | 6.4 µM | 4.43 µM | 5.1 µM | – |
| Cc1ccc(/C=C(\C#N)n2nnc3cc(F)c(F)cc32)cc1 | 7.3 µM | – | 15.4 µM | 34.4 µM | 7.41 µM | 20.9 µM | 84.5 µM | – | 14.2 µM | 6.81 µM | 2.28 µM | 1.95 µM | 2.65 µM | 4.02 µM | 2.72 µM | 4.58 µM | 2.45 µM | 2.8 µM | – |
| CC(C)[C@]12O[C@H]1[C@@H]1O[C@]13[C@]1(O[C@H]1C[C@H]1c4c(C(=O)c5ccccc5)oc(OC(=O)c5ccccc5)c4CC[C@@]13C)[C@@H]2O | > 62.4 µM | – | 3.78 µM | 2.75 µM | 52.2 µM | 36.6 µM | 0.17 µM | – | 10.5 µM | 0.0951 µM | 0.059 µM | 0.0188 µM | 0.226 µM | 0.0653 µM | 0.0249 µM | 0.176 µM | 0.0224 µM | 0.0223 µM | – |
| NCCOc1ccccn1 | > 100 µM | – | > 100 µM | > 100 µM | > 100 µM | > 100 µM | > 100 µM | – | > 100 µM | > 100 µM | – | – | – | – | – | – | – | – | – |
| CO/N=C1/c2cc(OC)ccc2-c2c(NOC)nc3ccccc3c21 | 37.3 µM | – | > 100 µM | > 100 µM | > 100 µM | 53 µM | 40.2 µM | – | > 100 µM | 49.6 µM | 16 µM | 21.9 µM | 37.5 µM | 32.8 µM | 29.5 µM | 17.5 µM | 14.6 µM | 35.4 µM | – |
| Cc1c2c(nn1-c1ccc(S/N=C3\SCC(=O)CN3c3ccccc3)cc1)-c1ccccc1CC2 | > 50 µM | – | > 50 µM | > 50 µM | > 50 µM | > 50 µM | > 50 µM | – | > 50 µM | 34.5 µM | > 50 µM | 11.1 µM | 46.5 µM | > 50 µM | 17.8 µM | > 50 µM | > 50 µM | 28.4 µM | – |
| O=C(/C=N/O)c1c(-c2ccccc2)[nH]c(-c2ccccc2)c1-c1ccccc1 | 45.2 µM | – | 28.2 µM | 34.2 µM | 35.2 µM | 34.2 µM | 55.7 µM | – | 36.3 µM | 11.3 µM | – | – | – | – | – | – | – | – | – |
| CC(CN(CP(=O)([O-])[O-])CP(=O)([O-])[O-])N(CP(=O)([O-])[O-])CP(=O)([O-])[O-].N[C@@H]1CCCC[C@@H]1N.[Pt+2] (stereo not given) | > 100 µM | – | > 100 µM | > 100 µM | > 100 µM | > 100 µM | > 100 µM | > 100 µM | > 100 µM | – | > 100 µM | – | > 100 µM | > 100 µM | > 100 µM | > 100 µM | > 100 µM | > 100 µM | > 100 µM |
| COC(=O)c1c(-c2ccccc2)csc1NC(=O)c1c(-c2ccccc2)noc1C | > 100 µM | – | > 100 µM | > 21.5 µM | > 100 µM | > 100 µM | > 100 µM | – | > 100 µM | > 100 µM | 0.568 µM | – | 0.802 µM | 0.598 µM | 4.06 µM | 1.07 µM | 3.59 µM | 8.88 µM | – |
| CC(C)(C)c1cc(C(O)(C(F)(F)F)C(F)(F)F)c2c(c1)C(C(F)(F)F)(C(F)(F)F)OC(c1ccccc1)(C(C)(C)C)N2 (stereo not given) | > 100 µM | 9.8 µM | 17.6 µM | 19.8 µM | 16.6 µM | 17.7 µM | 15.1 µM | 24.1 µM | 15.2 µM | – | – | – | – | – | – | – | – | – | – |
